13 compounds from patent US7211587B2, “Quinoline derivatives and quinazoline derivatives having azolyl group” (Kirin Beer Kabushiki Kaisha, priority 2001, dated 2007) can be followed below.

pIC50: −log10 of the molar value.

T1 sequence (P35968 20-1356): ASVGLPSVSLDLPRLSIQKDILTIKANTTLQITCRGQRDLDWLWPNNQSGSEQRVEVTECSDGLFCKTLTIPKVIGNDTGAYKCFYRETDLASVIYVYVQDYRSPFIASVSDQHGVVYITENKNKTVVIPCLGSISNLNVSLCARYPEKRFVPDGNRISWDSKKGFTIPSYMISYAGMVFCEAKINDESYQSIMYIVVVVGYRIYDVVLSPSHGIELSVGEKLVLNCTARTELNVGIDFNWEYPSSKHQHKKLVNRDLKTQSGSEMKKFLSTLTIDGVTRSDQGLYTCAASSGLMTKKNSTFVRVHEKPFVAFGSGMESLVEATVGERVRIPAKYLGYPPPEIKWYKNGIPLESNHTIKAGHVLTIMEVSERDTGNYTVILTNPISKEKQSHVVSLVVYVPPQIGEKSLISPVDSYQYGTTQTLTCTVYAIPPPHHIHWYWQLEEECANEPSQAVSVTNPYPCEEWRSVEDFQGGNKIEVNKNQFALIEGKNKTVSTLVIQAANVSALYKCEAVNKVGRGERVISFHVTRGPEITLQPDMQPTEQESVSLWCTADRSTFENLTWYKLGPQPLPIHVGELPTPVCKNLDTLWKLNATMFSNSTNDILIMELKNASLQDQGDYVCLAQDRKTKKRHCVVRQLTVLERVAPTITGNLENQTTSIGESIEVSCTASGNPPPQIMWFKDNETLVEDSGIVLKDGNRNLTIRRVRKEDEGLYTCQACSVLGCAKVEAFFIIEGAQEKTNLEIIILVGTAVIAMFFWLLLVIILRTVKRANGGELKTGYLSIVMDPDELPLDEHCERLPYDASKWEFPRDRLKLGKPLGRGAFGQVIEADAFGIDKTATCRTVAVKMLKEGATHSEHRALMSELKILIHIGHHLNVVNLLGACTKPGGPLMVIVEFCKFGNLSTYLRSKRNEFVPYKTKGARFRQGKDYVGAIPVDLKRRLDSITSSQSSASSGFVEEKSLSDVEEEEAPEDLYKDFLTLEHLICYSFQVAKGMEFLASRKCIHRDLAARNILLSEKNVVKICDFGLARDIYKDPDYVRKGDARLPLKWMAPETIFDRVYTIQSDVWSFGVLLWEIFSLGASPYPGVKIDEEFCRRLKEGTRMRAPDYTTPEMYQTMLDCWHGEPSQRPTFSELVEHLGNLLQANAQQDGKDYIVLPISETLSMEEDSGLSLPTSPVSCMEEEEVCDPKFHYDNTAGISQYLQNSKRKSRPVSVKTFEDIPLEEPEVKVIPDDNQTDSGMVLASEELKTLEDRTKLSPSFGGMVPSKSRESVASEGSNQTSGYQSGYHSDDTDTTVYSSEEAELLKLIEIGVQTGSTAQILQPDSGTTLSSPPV

This assay addresses T1, human KDR (Homo sapiens, UniProt P35968).
T1 construct: expressed in transfected cells; host or cells: NIH 3T3 cells (mouse fibroblasts) stably expressing human KDR
In words: Inhibitory activity against KDR phosphorylation by ELISA (VEGF-stimulated NIH 3T3 cells expressing human KDR). In kind it is cell-based. The settings on record: VEGF 100 ng/ml, compound 1 hr, read-out: IC50 (inhibition of KDR phosphorylation). The procedure: The harvested cells were inoculated into wells of a collagen-type one-coat 96-well flat-bottom plate, each containing the same medium, in an amount of 1.5×10^4 per well, followed by cultivation at 37° C. overnight. The medium was then replaced by a DMEM medium containing 0.1% fetal calf serum. A solution of a test compound in dimethyl sulfoxide was added to each well, and the cultivation was continued at 37° C. for additional one hr. A human recombinant vascular endothelial growth factor (hereinafter abbreviated to “VEGF”) was added to a final concentration of 100 ng/ml, and the stimulation of cells was carried out at 37° C. for 2 min. The medium was removed, the cells were washed with phosphate buffered saline (pH 7.4), and 50 μl of a solubilization buffer (20 mM HEPES (pH 7.4), 150 mM NaCl, 0.2% Triton X-100, 10% glycerol, 5 mM sodium orthovanadylate, 5 mM disodium ethylenediaminetetraacetate, and 2 mM Na4P2O7) was then added thereto. The mixture was shaken at 4° C. for 2 hr to prepare a cell extract.
Separately, phosphate buffered saline (50 μl, pH 7.4) containing 5 μg/ml of an anti-phospho-tyrosine antibody (PY20; purchased from Transduction Laboratories) was added to a microplate for ELISA (Maxisorp; purchased from NUNC), followed by standing at 4° C. overnight to form a solid phase on the wells. After washing of the plate, 300 μl of a blocking solution was added, followed by standing at room temperature for 2 hr to perform blocking. After washing, the whole quantity of the cell extract was transferred to the wells, and the plate was then allowed to stand at 4° C. overnight. After washing, an anti-KDR antibody (purchased from Santa Cruz) was allowed to react at room temperature for one hr, and, after washing, a peroxidase-labeled anti-rabbit Ig antibody (purchased from Amersham) was allowed to react at room temperature for one hr. After washing, a chromophoric substrate for peroxidase (purchased from Sumitomo Bakelite Co., Ltd.) was added thereto to initiate a reaction. After a suitable level of color development, a reaction termination solution was added to stop the reaction, and the absorbance at 450 nm was measured with a microplate reader. The KDR phosphorylation activity for each well was determined by presuming the absorbance with the addition of VEGF and without the addition of the medicament to be 100% KDR phosphorylation activity and the absorbance without the addition of the medicament and VEGF to be 0% KDR phosphorylation activity.
The term pIC50 denotes −log10 of the IC50, conventionally taken in molar units. Consider `COc1cc2nccc(Oc3ccc(NC(=O)Nc4nnc(C5CC5)s4)cc3Cl)c2cc1OC` [Ex. 68, N-{3-Chloro-4-[(6,7-dimethoxy-4-quinolyl)oxy]phenyl}-N′-(5-cyclopropyl-1,3,4-thiadiazol-2-yl)urea], for which the negative logarithm of the IC50 (pIC50) was 7.74.
To `COc1cc2nccc(Oc3ccc(NC(=O)Nc4ncc(Cl)s4)c(F)c3)c2cc1OC` [Ex. 37, N-(5-Chloro-1,3-thiazol-2-yl)-N′-{4-[(6,7-dimethoxy-4-quinolyl)oxy]-2-fluorophenyl}urea] belongs 8.72; to `COc1cc2ncnc(Oc3ccc(NC(=O)Nc4nccs4)cc3Cl)c2cc1OC` [Ex. 46, N-{3-Chloro-4-[(6,7-dimethoxy-4-quinazolinyl)oxy]phenyl}-N′-(1,3-thiazol-2-yl)urea], 8.13; to `COc1cc2nccc(Oc3ccc(NC(=O)Nc4ncc(Br)s4)c(Cl)c3)c2cc1OC` [Ex. 32, N-(5-Bromo-1,3-thiazol-2-yl)-N′-{2-chloro-4-[(6,7-dimethoxy-4-quinolyl)oxy]phenyl}urea], 8.43.
Turning to `COc1cc2ncnc(Oc3ccc(NC(=O)Nc4nc(C)c(C)s4)cc3Cl)c2cc1OC` [Ex. 49, N-{3-Chloro-4-[(6,7-dimethoxy-4-quinazolinyl)oxy]phenyl}-N′-(4,5-dimethyl-1,3-thiazol-2-yl)urea], the pIC50 was 8.51.
Then `COc1cc2ncnc(Oc3ccc(NC(=O)Nc4cc(C)no4)cc3)c2cc1OC` [Ex. 11, N-{4-[(6,7-Dimethoxy-4-quinazolinyl)oxy]-phenyl}-N′-(3-methyl-5-isoxazolyl)urea], with 8.03.
`COc1cc2nccc(Oc3ccc(NC(=O)Nc4nc(C)c(C(C)=O)s4)c(F)c3)c2cc1OC` [Ex. 36, N-(5-Acetyl-4-methyl-1,3-thiazol-2-yl)-N′-{4-[(6,7-dimethoxy-4-quinolyl)oxy]-2-fluorophenyl}urea]: the negative logarithm of the IC50 (pIC50) is 8.92.
Take `COc1cc2nccc(Oc3ccc(NC(=O)Nc4nc(C(C)(C)C)cs4)c(F)c3)c2cc1OC` [Ex. 30, N-[4-(Tert-butyl)-1,3-thiazol-2-yl]-N′-{4-[(6,7-dimethoxy-4-quinolyl)oxy]-2-fluorophenyl}urea]: the negative-log IC50 (pIC50) is 7.54.
To `CCc1nnc(NC(=O)Nc2ccc(Oc3ccnc4cc(OC)c(OC)cc34)cc2F)s1` [Ex. 63, N-{4-[(6,7-Dimethoxy-4-quinolyl)oxy]-2-fluorophenyl}-N′-(5-ethyl-1,3,4-thiadiazol-2-yl)urea] belongs over 9.00; to `COc1cc2ncnc(Oc3ccc(NC(=O)Nc4cc(C)no4)c(Cl)c3)c2cc1OC` [Ex. 13, N-{2-Chloro-4-[(6,7-dimethoxy-4-quinazolinyl)oxy]phenyl}-N′-(3-methyl-5-isoxazolyl)urea], 8.66; to `COc1cc2ncnc(Oc3ccc(NC(=O)Nc4ncc(C)s4)cc3Cl)c2cc1OC` [Ex. 47, N-{3-Chloro-4-[(6,7-dimethoxy-4-quinazolinyl)oxy]phenyl}-N′-(5-methyl-1,3-thiazol-2-yl)urea], 8.55.
Then `CCSc1nnc(NC(=O)Nc2ccc(Oc3ccnc4cc(OC)c(OC)cc34)cc2F)s1` [Ex. 70, N-{4-[(6,7-Dimethoxy-4-quinolyl)oxy]-2-fluorophenyl}-N′-[5-(ethylsulfanyl)-1,3,4-thiadiazol-2-yl]urea], with 8.66; and `CCc1nnc(NC(=O)Nc2ccc(Oc3ccnc4cc(OC)c(OC)cc34)cc2Cl)s1` [Ex. 65, N-{2-Chloro-4-[(6,7-dimethoxy-4-quinolyl)oxy]phenyl}-N′-(5-ethyl-1,3,4-thiadiazol-2-yl)urea], with over 9.00.
